Measurements from publication PMC4121215, “Cytotoxic Constituents from the Rhizomes of Curcuma zedoaria” (The Scientific World Journal, 2014).
In brackets after ≈: the same amount, converted by molar mass. Read-outs that look alike come from different tables or passages of the source.

Experiments:
[1] = test system: PC-3 (prostate cancer); experiment: MTT cytotoxicity assay, PC-3; type: cell-based; settings: for IC50: Homo sapiens, MTT, 72 h, mean ± SD of three replicates; for IC50 / SI (selectivity index) PC-3: isolated compounds; for antiproliferative/cytotoxic activity against PC-3 (in words): MTT assay; for SI (selectivity index) PC-3: IC50 HUVEC / IC50 PC-3
Method: (§1) The human cell lines MCF-7 (breast cancer), Ca Ski (cervical cancer), and HT-29 (colon cancer) were cultured as monolayer in RPMI 1640 growth media. HUVEC (human umbilical vein endothelial cells) and PC-3 (prostate cancer) cells were cultured in DMEM. All cells were purchased from the American Tissue Culture Collection (ATCC, USA) except for human umbilical vein endothelial cells (HUVEC) which were obtained from ScienCell Research Laboratories (Carlsbad, CA). All the media were supplemented with 10% v/v foetal bovine serum (FBS), 100 μg/mL penicillin/streptomycin, and 50 μg/mL amphotericin B. The cells were cultured in a 5% CO2 incubator at 37°C.
(§2) Cell viability was investigated using 3-(4, 5-dimethylthiazol-2-yl)-2, 5-diphenyltetrazolium bromide (MTT) assay. Cells were detached from the […] tissue culture flask when it achieved 80% confluency. The detached cells were pellet by centrifugation (1,000 rpm; 5 minutes). Cells (3.0 × 10^4 cells/mL) were seeded onto a 96-well microtiter plate (Nunc). The cells were incubated at 37°C CO2 incubator for 24 h to give adherent cells. The test compounds (1–100 μg/mL) were added onto the 96-well microtiter plate containing adherent cells. The untreated cells were incubated in 10% media containing 0.5% DMSO (without addition of any test compounds/extracts). This mixture was regarded as the negative control whereas doxorubicin as the positive control. The plates were incubated for 72 h at 37°C in a 5% CO2 incubator. After 72 h, the media were removed and 100 μL of fresh medium and 20 μL of MTT (Sigma, filter sterile, 5 mg/mL) were added to each well and further incubated for 4 hours (37°C) after which the media were substituted with 150 μL DMSO. The 96-well microtiter plates were then agitated at room temperature onto an incubator shaker to dissolve the formazan crystals. The absorbance (A) of the content of the plates was measured at 540 nm using a microplate reader. The percentage of inhibition of each test sample was calculated according to the following formula: Percentage of inhibition (%) = (A control − A sample)/A control × 100%. The average of three replicates was then obtained. The IC50 for each extract was extrapolated from the graphs of the percentage inhibition versus concentration of test agents. Cytotoxicity of each test agent is expressed as IC50 value. The IC50 value is the concentration of test agents that cause 50% inhibition or cell death, averaged from the three experiments. The selectivity index (SI) was also calculated as described by using the ratio between IC50 of the extract or compounds on normal cell lines (HUVEC) and IC50 of the tested extract or compounds on cancerous cell lines. Selectivity index (SI) values equal or greater than three were considered to have a high selectivity towards cancerous cells. An SI value denotes the selectivity of the sample to the tested cell lines.

[2] = test system: HUVEC (human umbilical vein endothelial cells); experiment: cells; type: cell-based; settings: for IC50: Homo sapiens, HUVEC, isolated compounds, MTT, 72 h, normal cells
Method: as §1, §2

[3] = test system: MCF-7 (breast cancer); experiment: cells; type: cell-based; settings: for IC50: Homo sapiens, MCF7, MTT, 72 h, mean ± SD of three replicates; for IC50 / SI (selectivity index) MCF-7: isolated compounds; for SI (selectivity index) MCF-7: IC50 HUVEC / IC50 MCF-7
Method: as §1, §2

[4] = test system: HT-29 (colon cancer); experiment: MTT cytotoxicity assay, HT-29; type: cell-based; settings: for IC50: Homo sapiens, HT-29, MTT, 72 h, mean ± SD of three replicates; for IC50 / SI (selectivity index) HT-29: isolated compounds; for antiproliferative/cytotoxic activity against HT-29 (in words): MTT assay; for SI (selectivity index) HT-29: IC50 HUVEC / IC50 HT-29
Method: as §1, §2

[5] = test system: Ca Ski (cervical cancer); experiment: cells; type: cell-based; settings: for IC50: Homo sapiens, Ca-Ski, MTT, 72 h, mean ± SD of three replicates; for IC50 / SI (selectivity index) Ca Ski: isolated compounds; for SI (selectivity index) Ca Ski: IC50 HUVEC / IC50 Ca Ski
Method: as §1, §2

[6] = test system: MCF-7; design: method as in PMID 21629182; settings: zerumin A isolated from Curcuma mangga; cited from earlier work
[7] = test system: Ca Ski; design: method as in PMID 21629182; settings: zerumin A isolated from Curcuma mangga; cited from earlier work

| Compound | IC50 [1] [µg/mL] | antiproliferative/cytotoxic activity against PC-3 (in words) [1] | SI (selectivity index) PC-3 [1] | IC50 [2] [µg/mL] | IC50 [3] [µg/mL] | SI (selectivity index) MCF-7 [3] | IC50 [4] [µg/mL] | antiproliferative/cytotoxic activity against HT-29 (in words) [4] | SI (selectivity index) HT-29 [4] | IC50 [5] [µg/mL] | SI (selectivity index) Ca Ski [5] | IC50 MCF-7 [6] [µg/mL] | IC50 Ca Ski [7] [µg/mL] | antiproliferative/cytotoxic activity against MCF-7 (in words) ([3]; MTT assay) | antiproliferative/cytotoxic activity against Ca Ski (in words) ([5]; MTT assay) | toxicity towards normal cells HUVEC (in words) [2] | antiproliferative/cytotoxic activity against MCF-7 (in words) [3] | antiproliferative/cytotoxic activity against Ca Ski (in words) [5] |
| --- | --- | --- | --- | --- | --- | --- | --- | --- | --- | --- | --- | --- | --- | --- | --- | --- | --- | --- |
| C=C(C)[C@@H]1CC[C@H](C)[C@]12CC(=C(C)C)C(=O)O2 [Compound 17, curcumanolide A] | 18.8 ± 2.4 (≈ 80.2 µM) | moderate inhibitory activity | 1.2 | 21.7 ± 7 (≈ 92.6 µM) | 29.8 ± 3.1 (≈ 127 µM) | 0.7 | 21.3 ± 3.2 (≈ 90.9 µM) | moderate inhibitory activity | 1.0 |  |  |  |  |  |  |  |  |  |
| CC1=CCCC2(C)OC2C(=O)c2c(C)coc2C1 (centres unmarked) [Compound 9, zederone] | 27 ± 1.9 (≈ 110 µM) | moderate inhibitory activity | 1.6 | 42.1 ± 2.7 (≈ 171 µM) | > 100 | 0.4 | 19.1 ± 2.5 (≈ 77.5 µM) | moderate inhibitory activity | 2.2 | > 100 | 0.4 |  |  |  |  |  |  |  |
| CC(C)=C1C/C=C(\C)CC/C=C(\C)CC1=O [Compound 7, germacrone] | 55.2 ± 4.9 (≈ 253 µM) |  | 1.3 | 73.7 ± 0.3 (≈ 338 µM) | 59.1 ± 2.9 (≈ 271 µM) | 1.2 | 42.9 ± 4.1 (≈ 196 µM) |  | 1.7 | 39.3 ± 1.2 (≈ 180 µM) | 1.9 |  |  |  |  |  |  |  |
| C=C1CC[C@H]2C(C)(C)CCC[C@]2(C)[C@H]1C/C=C(/C=O)CC(OC)OC [Compound 13, calcaratarin A] | 41.7 ± 3.4 (≈ 120 µM) |  | 1.1 | 47.3 ± 4.2 (≈ 136 µM) | 62.5 ± 4.8 (≈ 179 µM) | 0.8 | 48.3 ± 5.1 (≈ 139 µM) |  | 1.0 |  |  |  |  |  |  |  |  |  |
| C=C1CC[C@H]2C(C)(C)CCC[C@]2(C)[C@H]1CC=C(C=O)CC(=O)O (stereo in doubt) [Compound 16, zerumin A] | 21.9 ± 1.6 (≈ 68.8 µM) | moderate inhibitory activity | 1.2 | 25.8 ± 1.9 (≈ 81 µM) | 22.3 ± 1.1 (≈ 70 µM) | 1.2 | 17.4 ± 2 (≈ 54.6 µM) | moderate inhibitory activity | 1.5 |  |  | 14.2 ± 0.06 (≈ 44.6 µM) | 8.7 ± 0.29 (≈ 27.3 µM) |  |  |  |  |  |
| C/C1=C\Cc2c(C)coc2C/C(C)=C/CC1 [Compound 11, furanodiene] | 39.5 ± 4.5 (≈ 183 µM) |  | 1.0 | 40.9 ± 2.6 (≈ 189 µM) | 36.5 ± 2.6 (≈ 169 µM) | 1.1 | 47.2 ± 4.4 (≈ 218 µM) |  | 0.9 |  |  |  |  |  |  |  |  |  |
| CC1=CC2C(=C(C)C)C(=O)C=C(C)C2CC1 (centres unmarked) [Compound 4, comosone II] |  |  |  |  | > 100 |  |  |  |  | 76 ± 1.2 (≈ 351 µM) |  |  |  |  |  |  |  |  |
| C=C(C)C(=O)C[C@]12OC(=O)C=C(C)[C@@H]1CC[C@@H]2C [Compound 18, curcuzedoalide] | 62.1 ± 8.1 (≈ 250 µM) |  | 0.7 | 45.3 ± 7.8 (≈ 182 µM) | 49.8 ± 3.6 (≈ 201 µM) | 0.9 | 58.2 ± 3.5 (≈ 234 µM) |  | 0.8 |  |  |  |  |  |  |  |  |  |
| CC(C)=C1CC(=O)[C@@H](C)CC/C=C(\C)CC1=O [Compound 2, dehydrocurdione] | 19.1 ± 2.8 (≈ 81.5 µM) | moderate inhibitory activity | 1.3 | 24 ± 2.1 (≈ 102 µM) | 33 ± 1.1 (≈ 141 µM) | 0.7 | 22.7 ± 2.4 (≈ 96.9 µM) | moderate inhibitory activity | 1.1 | 21.7 ± 1.1 (≈ 92.6 µM) | 1.1 |  |  |  |  |  |  |  |
| C=C1CC[C@H]2C(C)(C)CCC[C@]2(C)[C@H]1C/C=C(/C=O)CC=O [Compound 1, labda-8(17),12 diene-15,16 dial] | 26.3 ± 2.4 (≈ 87 µM) | moderate inhibitory activity | 1.7 | 45.3 ± 1.9 (≈ 150 µM) | 16.3 ± 0.2 (≈ 53.9 µM) | 2.8 | 21.5 ± 3.1 (≈ 71.1 µM) | moderate inhibitory activity | 2.1 | 14.5 ± 0.1 (≈ 47.9 µM) | 3.1 |  |  | moderate cytotoxicity | moderate cytotoxicity |  |  |  |
| Hexane |  |  |  |  |  |  |  |  |  |  |  |  |  |  |  | low toxicity | high inhibitory activity | high inhibitory activity |
| CC1=CC2(O)OC3(CC2=C(C)C)C(C)CCC13 (centres unmarked) [Compound 10, 9-isopropylidene-2,6-dimethyl-11-oxatricyclo[6.2.1.0^1,5]undec-6-en-8-ol] |  |  |  | 71.7 ± 6.1 (≈ 306 µM) | > 100 | < 0.7 |  |  |  | > 100 | < 0.7 |  |  |  |  |  |  |  |
| COc1cccc2c1C(=O)c1c(O)c3c(c(O)c1C2=O)C[C@@](O)(C(=O)CO)C[C@@H]3O[C@H]1C[C@H](N)[C@H](O)[C@H](C)O1 [doxorubicin, reference compound] |  |  |  | 1.4 (≈ 2.58 µM) | 0.1 (≈ 0.184 µM) |  |  |  |  | 0.2 ± 1 (≈ 0.368 µM) |  |  |  |  |  |  |  |  |
| C=C1CC(=O)C(=C(C)C)C[C@H]2[C@H]1CC[C@]2(C)O [Compound 14, isoprocurcumenol] | 37.4 ± 4.5 (≈ 160 µM) |  | 1.2 | 45.1 ± 3 (≈ 192 µM) | 58.8 ± 4.2 (≈ 251 µM) | 0.8 | 51.6 ± 3.9 (≈ 220 µM) |  | 0.9 |  |  |  |  |  |  |  |  |  |
| CC1=CCCC2(C)OC2CC(=C(C)C)C(=O)C1 (centres unmarked) [Compound 12, germacrone-4,5-epoxide] | 43.9 ± 7.2 (≈ 187 µM) |  | 1.1 | 48.4 ± 4.7 (≈ 207 µM) | 37.2 ± 4 (≈ 159 µM) | 1.3 | 39.6 ± 4.6 (≈ 169 µM) |  | 1.2 |  |  |  |  |  |  |  |  |  |
| CC1=CC(=O)C(=C(C)C)C[C@H]2[C@H]1CC[C@]2(C)O [Compound 6, procurcumenol] | 13.3 ± 1.7 (≈ 56.8 µM) | good cytotoxic effect | 1.2 | 16.3 ± 1 (≈ 69.6 µM) | 16.1 ± 2.2 (≈ 68.7 µM) | 1.0 | 15.5 ± 2.3 (≈ 66.1 µM) | good cytotoxic effect | 1.1 | 62.4 ± 0.3 (≈ 266 µM) | 0.3 |  |  |  |  |  |  |  |
| CC(C)=C1C/C=C(\C)CC[C@H]2O[C@@]2(C)CC1=O [Compound 15, germacrone-1,10-epoxide] | 53.2 ± 4.9 (≈ 227 µM) |  | 1.0 | 55.5 ± 1.6 (≈ 237 µM) | 61.2 ± 5.8 (≈ 261 µM) | 0.9 | 72.8 ± 8.3 (≈ 311 µM) |  | 0.8 |  |  |  |  |  |  |  |  |  |
| Cc1cc2oc(=O)c(C)c-2cc2c1CC[C@@H]2C [Compound 19, gweicurculactone] | 38.3 ± 2.2 (≈ 168 µM) |  | 1.9 | 71.7 ± 6.1 (≈ 314 µM) | 31.2 ± 3.2 (≈ 137 µM) | 2.3 | 35.7 ± 5.8 (≈ 156 µM) |  | 2.0 |  |  |  |  |  |  |  |  |  |
